Data on four compounds can be found in ChEMBL document CHEMBL1128072, “The synthesis and biological evaluation of hypericin analogs” (Bioorg Med Chem Lett, 1995).

Activity calls are given as the source filed them. The calls are words filed in the database; no cut-off is given here.

Assay [1] deals with Equine infectious anemia virus. Description: In vitro anti-retroviral activity against equine infectious anemia virus(EIAV); compound was active. It is filed as functional, organism-based.
The subject of assay [2] is Equine infectious anemia virus. Description: In vitro anti-retroviral activity against equine infectious anemia virus(EIAV); Inactive. It is filed as functional, organism-based.

Regarding `Cc1cc(O)c2c(=O)c3c(O)cc(O)c4c5c(O)cc(O)c6c(=O)c7c(O)cc(C)c8c1c2c(c34)c(c78)c65`, in assay [1], the result was Active.

For `Cc1c(O)c2c(=O)c3c(O)c(C)c(O)c4c5c(O)c(C)c(O)c6c(=O)c7c(O)c(C)c(O)c8c(c1O)c2c(c34)c(c78)c65`, the outcome in assay [2] was inactive.

Turning to `COc1cc(O)c2c(=O)c3c(O)cc(O)c4c5c(O)cc(O)c6c(=O)c7c(O)cc(OC)c8c1c2c(c34)c(c65)c78`, in assay [1], the outcome was Active.

For `O=c1c2c(O)cc(O)c3c4c(O)cc(O)c5c(=O)c6c(O)cc(O)c7c8c(O)cc(O)c1c8c(c23)c(c54)c67`, the result in assay [2] was inactive.
